# Where a name gives a salt, the structure may show the parent alone.
# Legend:
# [1] = system: Citrobacter freundii 1982; assay: MIC in vitro of a 1:4 combination of ceftriaxone with a compound of formula I (Test D); format: cell-based; conditions: for MIC C. freundii 1982: Table 2; for MIC C. freundii 1982 (D): test D
# Procedure: The minimum inhibitory concentration in vitro ([…]) of a 1:4 combination of ceftriaxone with a compound of formula I against Citrobacter freundii 1982 was measured and compiled in Table 2 hereinafter.
# E. coli 1346 = assay: Antibacterial activity of the products per se, serial dilution method in liquid medium (Test E); format: cell-based; conditions: product per se; for MIC E. coli 1346: Table 3, liquid medium; for MIC E. coli 1346 (E): test E
# Source text: The antibacterial activity of the products per se is illustrated on the basis of Table 3 hereinafter, the minimum inhibitory concentration […] in vitro against E. coli 1346 being determined using the serial dilution method in liquid medium: […]
# [2] = 1:4 combination of ceftriaxone with the compound
# [3] = Table 4, 1:4 combination of ceftriaxone with the compound
"MIC C. freundii 1982 [1, 2] [µg/mL]",MIC E. coli 1346 (E. coli 1346) [µg/mL],"MIC C. freundii 1982 (D) [1, 3] [µg/mL]",MIC E. coli 1346 (E) (E. coli 1346; Table 4) [µg/mL],SMILES,further results
0.12,32,,,"CS(=O)(=O)OC1=C(C(=O)O)N2C(=O)[C@@H]3[C@H]2[C@H](C1)CN3C(=O)NC1CCSC1=O (mixture of isomers) [9(f), (1aS,3aR,6bR)-5-Methylsulphonyloxy-1-oxo-2-[(R) and [(S)-2-oxo-tetrahydro-thien-3-ylcarbamoyl]-1a,2,3,3a,4,6b-hexahydro-1H-2,6a-diazacyclobut[cd]indene-6-carboxylic acid sodium salt]",
,,4,8,"CC(=O)N1C[C@H]2CC(Sc3nnc(C)s3)=C(C(=O)O)N3C(=O)[C@@H]1[C@@H]23 [3(ac), (1aS,3aR,6bR)-2-Acetyl-5-(5-methyl-1,3,4-thiadiazol-2-ylsulphanyl)-1-oxo-1a,2,3,3a,4,6b-hexahydro-1H-2,6a-diazacyclobut[cd]indene-6-carboxylic acid sodium salt]",
,,4,4,"CC(=O)N1C[C@H]2CC(Sc3nnc(N)s3)=C(C(=O)O)N3C(=O)[C@@H]1[C@@H]23 [3(ae), (1aS,3aR,6bR)-2-Acetyl-5-(5-amino-1,3,4-thiadiazol-2-ylsulphanyl)-1-oxo-1a,2,3,3a,4,6b-hexahydro-1H-2,6a-diazacyclobut[cd]indene-6-carboxylic acid sodium salt]",
,,2,8,"N#CCC(=O)N1C[C@H]2CC(Sc3nnc(N)s3)=C(C(=O)O)N3C(=O)[C@@H]1[C@@H]23 [3(ag), (1aS,3aR,6bR)-5-(5-Amino-1,3,4-thiadiazol-2-ylsulphanyl)-2-cyanoacetyl-1-oxo-1a,2,3,3a,4,6b-hexahydro-1H-2,6a-diazacyclobut[cd]indene-6-carboxylic acid sodium salt]",
,,32,> 32,"O=C(O)C1=C(Sc2ccncc2)C[C@@H]2CN(C(=O)C(F)(F)F)[C@@H]3C(=O)N1[C@H]23 [3(ai), (1aS,3aR,6bR)-1-Oxo-5-(pyridin-4-ylsulphanyl)-2-trifluoracetyl-1a,2,3,3a,4,6b-hexahydro-1H-2,6a-diazacyclobut[cd]indene-6-carboxylic acid sodium salt]",
,,4,16,"CC(=O)N1C[C@H]2CC(SCC(N)=O)=C(C(=O)O)N3C(=O)[C@@H]1[C@@H]23 [3(ak), (1 aS,3aR,6bR)-2-Acetyl-5-carbamoylmethylsulphanyl-1-oxo-1a,2,3,3a,4,6b-hexahydro-1H-2,6a-diazacyclobut[cd]indene-6-carboxylic acid sodium salt]",
,,2,8,"NC(=O)CSC1=C(C(=O)O)N2C(=O)[C@@H]3[C@H]2[C@H](C1)CN3C(=O)C(F)(F)F [3(al), (1aS,3aR,6bR)-5-Carbamoylmethylsulphanyl-1-oxo-2-trifluoroacetyl-1a,2,3,3a,4,6b-hexahydro-1H-2,6a-diazacyclobut[cd]indene-6-carboxylic acid sodium salt]",
,,32,32,"Cn1nc[n+](C)c1CSC1=C(C(=O)[O-])N2C(=O)[C@@H]3[C@H]2[C@H](C1)CN3C(=O)C(F)(F)F [3(an), (1aS,3aR,6bR)-5-[(1,4-Dimethyl-1H-1,2,4-triazol-5-ylio)methylsulphanyl]-1-oxo-2-trifluoroacetyl-1a,2,3,3a,4,6b-hexahydro-1H-2,6a-diazacyclobut[cd]indene-6-carboxylate]",
,,8,> 32,"CC(=O)N1C[C@H]2CC(SCc3n(C)nc[n+]3C)=C(C(=O)[O-])N3C(=O)[C@@H]1[C@@H]23 [3(ao), (1aS,3aR,6bR)-2-Acetyl-5-[(1,4-dimethyl-1H-1,2,4-triazol-5-ylio)-methylsulphanyl]-1-oxo-1a,2,3,3a,4,6b-hexahydro-1H-2,6a-diazacyclobut[cd]indene-6-carboxylate]",
1,32,,,"Cn1nnnc1SC1=C(C(=O)O)N2C(=O)[C@@H]3[C@H]2[C@H](C1)CN3C(=O)NCc1cccs1 [3(d), (1aS,3aR,6bR)-5-(1-Methyl-1H-tetrazol-5-ylsulphanyl)-1-oxo-2-(thien-2-ylmethylcarbamoyl)-1a,2,3,3a,4,6b-hexahydro-1H-2,6a-diazacyclobut[cd]indene-6-carboxylic acid sodium salt]",
2,32,,,"Cn1nnnc1SC1=C(C(=O)O)N2C(=O)[C@@H]3[C@H]2[C@H](C1)CN3C(=O)NCc1ccc(O)c(O)c1 [3(e), (1aS,3aR,6bR)-2-(3,4-Dihydroxy-benzylcarbamoyl)-5-(1-methyl-1H-tetrazol-5-ylsulphanyl)-1-oxo-1a,2,3,3a,4,6b-hexahydro-1H-2,6a-diazacyclobut[cd]indene-6-carboxylic acid salt]",
0.5,16,,,"Cn1nnnc1SC1=C(C(=O)O)N2C(=O)[C@@H]3[C@H]2[C@H](C1)CN3C(=O)NCc1ccc(S(N)(=O)=O)cc1 [3(g), (1aS,3aR,6bR)-5-(1-Methyl-1H-tetrazol-5-ylsulphanyl)-1-oxo-2-(4-sulphamoyl-benzylcarbamoyl)-1a,2,3,3a,4,6b-hexahydro-1H-2,6a-diazacyclobut[cd]indene-6-carboxylic acid sodium salt]",
2,16,,,"COc1cc(CNC(=O)N2C[C@H]3CC(Sc4nnnn4C)=C(C(=O)O)N4C(=O)[C@@H]2[C@@H]34)on1 [3(h), (1aS,3aR,6bR)-2-(3-Methoxy-isoxazol-5-ylmethylcarbamoyl)-5-(1-methyl-1H-tetrazol-5-ylsulphanyl)-1-oxo-1a,2,3,3a,4,6b-hexahydro-1H-2,6a-diazacyclobut[cd]indene-6-carboxylic acid sodium salt]",
0.5,8,,,"Nc1nnc(SC2=C(C(=O)O)N3C(=O)[C@@H]4[C@H]3[C@H](C2)CN4C(=O)Nc2ccc(O)cc2)s1 [3(l), (1aS,3aR,6bR)-5-(5-Amino-1,3,4-thiadiazol-2-ylsulphanyl)-2-(4-hydroxyphenylcarbamoyl)-1-oxo-1a,2,3,3a,4,6b-hexahydro-1H-2,6a-diazacyclobut[cd]indene-6-carboxylic acid sodium salt]","MIC C. freundii 1982 (D) ([1]; Table 5, particularly preferred products, 1:4 combination with ceftriaxone): 0.5 µg/mL; MIC E. coli 1346 (E) (E. coli 1346; Table 5, particularly preferred products): 8 µg/mL"
,,1,> 32,"NC(=O)c1ccc(NC(=O)N2C[C@H]3CC(Sc4ccncc4)=C(C(=O)O)N4C(=O)[C@@H]2[C@@H]34)cc1 [3(n), (1aS,3aR,6bR)-2-(4-Carbamoyl-phenylcarbamoyl)-1-oxo-5-(pyridin-4-ylsulphanyl)-1a,2,3,3a,4,6b-hexahydro-1H-2,6a-diazacyclobut[cd]indene-6-carboxylic acid sodium salt]",
,,1,> 32,"O=C(O)C1=C(Sc2ccncc2)C[C@@H]2CN(C(=O)Nc3ccc(O)cc3)[C@@H]3C(=O)N1[C@H]23 [3(o), (1aS,3aR,6bR)-2-(4-Hydroxy-phenylcarbamoyl)-1-oxo-5-(pyridin-4-ylsulphanyl)-1a,2,3,3a,4,6b-hexahydro-1H-2,6a-diazacyclobut[cd]indene-6-carboxylic acid sodium salt]",
,,1,32,"NC(=O)CSC1=C(C(=O)O)N2C(=O)[C@@H]3[C@H]2[C@H](C1)CN3C(=O)Nc1ccc(O)cc1 [3(p), (1aS,3aR,6bR)-5-Carbamoylmethylsulphanyl-2-(4-hydroxyphenylcarbamoyl)-1-oxo-5-(pyridin-4-ylsulphanyl)-1a,2,3,3a,4,6b-hexahydro-1H-2,6a-diazacyclobut[cd]indene-6-carboxylic acid sodium salt]",
,,2,> 32,"Cn1nc[n+](C)c1CSC1=C(C(=O)[O-])N2C(=O)[C@@H]3[C@H]2[C@H](C1)CN3C(=O)Nc1ccc(O)cc1 [3(q), (1aS,3aR,6bR)-5-[(1,4-Dimethyl-1H-1,2,4-triazol-5-ylio)methylsulphanyl]-2-(4-hydroxy-phenylcarbamoyl)-1-oxo-1a,2,3,3a,4,6b-hexahydro-1H-2,6a-diazacyclobut[cd]indene-6-carboxylate]",
0.12,32,,,"CS(=O)(=O)OC1=C(C(=O)O)N2C(=O)[C@@H]3[C@H]2[C@H](C1)CN3C(=O)Nc1ccc(O)cc1 [9(a), (1aS,3aR,6bR)-2-(4-Hydroxy-phenylcarbamoyl)-5-methylsulphonyloxy-1-oxo-1a,2,3,3a,4,6b-hexahydro-1H-2,6a-diazacyclobut[cd]indene-6-carboxylic acid sodium salt]",
0.25,0.5,,,"CS(=O)(=O)OC1=C(C(=O)O)N2C(=O)[C@@H]3[C@H]2[C@H](C1)CN3C(=O)Nc1ccc(C(N)=O)cc1 [9(b), (1aS,3aR,6bR)-2-(4-Carbamoyl-phenylcarbamoyl)-5-methylsulphonyloxy-1-oxo-1a, 2,3,3a,4,6b-hexahydro-1H-2,6a-diazacyclobut[cd]indene-6-carboxylic acid sodium salt]",
1,8,,,"CS(=O)(=O)OC1=C(C(=O)O)N2C(=O)[C@@H]3[C@H]2[C@H](C1)CN3C(=O)NCc1cccs1 [9(c), (1aS,3aR,6bR)-5-Methylsulphonyloxy-2-(thien-2-ylmethylcarbamoyl)-1-oxo-1a,2,3,3a,4,6b-hexahydro-1H-2,6a-diazacyclobut[cd]indene-6-carboxylic acid sodium salt]",
